Assay [1] deals with TLR7-mediated NF-κB signaling pathway (IKKα/β, IκBα, p65). Nature of the assay: Western blot, NF-κB pathway in R837-stimulated RAW264.7 cells. Particulars: RAW264.7 cells; R837 alone. In kind it is cell-based, mouse. The method, then: (§1) RAW264.7 cells (2×10^6 cells/well) were plated into 6-well plates and then incubated at 37°C in 5% CO2 for 24 h. After incubated with various concentrations of EFL2 (1, 5 and 10 µM) for 1 h, cells were then stimulated by R837 (20 μg/ml) for 30 min. Cell lysates were prepared by direct lysis in 20 µL IP buffer (Beyotime Biotechnology, Shanghai, China). After obtaining the whole cell extracts, the cytosolic and nuclear were seperated using Nuclear and Cytoplasmic Protein Extraction Kit (Beyotime Biotechnology, Shanghai, China). BCA Protein Assay Kit (Beyotime Biotechnology, Nantong, China) was applied to determine the protein concentrations. The bands corresponding to p- IKKα/β, IKKα/β, p-IκBα, IκBα, p-p65, p65, p-IRAK4, IRAK4, p-IKKβ, IKKβ, p-IRF5, IRF5, β-actin and Lamin B were visualized using a Western Blot Detection Chemiluminescence Kit (Merck). Protein extracted from the total lysates/cytoplasm and nucleus was quantified in relation to β-actin and Lamin B bands, respectively.
(§2) The antibodies used in the experiments were as follows: rabbit anti-mouse IKKα/β polyclonal antibody (1:1,000, Abways, China), rabbit anti-mouse IκBα polyclonal antibody (1:1,000, Abgent, China), rabbit anti-mouse p65 polyclonal antibody (1:1,000, Abgent, China), rabbit anti-mouse phosphorylated IKKα (Ser176)/β (Ser177) (1:1,000, Abways, China), rabbit anti-mouse phosphorylated IκBα (1:1,000, Abcam, United States), rabbit anti-mouse phosphorylated p65 (1:1,000, Abcam, United States), rabbit anti-mouse IRAK4 polyclonal antibody (1:1,000, Proteintech, United States), rabbit anti-mouse phosphorylated IRAK4 (Thr345/Ser346) (1:1,000, Affinity, United States), rabbit anti-mouse IKKβ polyclonal antibody (1:1,000, Abbkine, United States), rabbit anti-mouse phosphorylated IKKβ (Ser177) (1:1,000, Abways, China), rabbit anti-mouse IRF5 polyclonal antibody (1:1,000, Immunoway, United States), rabbit anti-mouse phosphorylated IRF5 (Ser437) (1:1,000, Affinity, United States), anti-mouse actin monoclonal antibody (1:20,000, Transgen, China) and rabbit anti-mouse LaminB monoclonal antibody (1:5,000, Abways, China).

The subject of assay [2] is TLR7 (R837) induced cytokine production in PBMCs. Nature of the assay: ELISA of IL-1β and IL-6 in supernatant of R837 stimulated PBMCs. In kind it is cell-based, human. Particulars: PBMCs; R837 alone. As for the experimental part: (§3) RAW264.7 cells, a mouse macrophage cell line, were cultured in DMEM medium containing 10% fetal bovine serum (FBS), 1% penicillin-streptomycin and maintained at 37 °C in 5% CO2 humidified air. Bone marrow-derived macrophages (BMDMs) generation was performed as following description. In brief, bone marrow cells were harvested from tibias and femurs of C57BL/6 mice and differentiated for 7 days in DMEM medium supplemented with 10% FBS, 1% penicillin-streptomycin and 50 ng/ml M-CSF. For human peripheral blood mononuclear cells (PBMCs) preparation, 5 ml peripheral venous blood was obtained from healthy donors in West China Hospital. PBMCs were isolated with Human Lymphocyte Separation Medium (LTS1077, Tian Jing, China) according to the manufacturer’s instructions. The experimental protocols were performed according to the approved guidelines established by the Institutional Human Research Subject Protection Committee of the Ethics Committee of West China Hospital, Sichuan University, China.
RAW264.7 cells (5×10^5/ml), BMDMs (5×10^5/ml) and PBMCs (2×10^6/ml) were plated in 96-well plates and incubated overnight. […]
(§4) IL-4, IL-17A and TNF-α in sera from different group mice were measured using CBA Multiplex kit (BD, United States). The concentrations of IL-1β and IL-6 in serum or supernatant were detected by ELISA Kit (MULTI SCIENCES, China) according to the manufacturers’ instructions.

Assay [3] deals with TLR7 (R837) / TLR3 (poly:IC) induced cytokine production in RAW264.7 cells. Nature of the assay: ELISA of IL-1β and IL-6 in supernatant of R837 and/or poly:IC stimulated RAW264.7 cells. In kind it is cell-based, mouse. As for the experimental part:
(§5) RAW264.7 cells (5×10^5/ml), BMDMs (5×10^5/ml) and PBMCs (2×10^6/ml) were plated in 96-well plates and incubated overnight. […] For the anti-inflammatory molecular mechanism study, RAW264.7 cells (5×10^5/ml) were plated in 96-well plates and stimulated with R837 (20 μg/ml) with or without the addition of NF-κB inhibitor (JSH-23, […]) for 24 h. After 24 h, the culture supernatant was collected for cytokines measurements.
as §4

The subject of assay [4] is TLR7-mediated IRAK4/IKKβ/IRF5 signaling pathway. Nature of the assay: Western blot, IRAK4/IKKβ/IRF5 in R837-stimulated RAW264.7 cells. In kind it is cell-based, mouse. The settings on record: RAW264.7 cells; R837 alone. As for the experimental part: as §1, §2
Assay [5] has as its system P65 and IRF5 translocation. In words: Confocal microscopy of p65 and IRF5 translocation in RAW264.7 cells. In kind it is cell-based, mouse. Particulars: R837 alone, immunofluorescence staining. The method, then: P65 and IRF5 translocation activity was analyzed by confocal microscopy. Briefly, 1×10^5 RAW264.7 cells were plated on coverslips overnight. Cells were pretreated with various concentrations of EFL2 (1, 5 and 10 µM) for 1 h and then stimulated by R837 (20 μg/ml) for 30 min. After washed with ice-cold PBS, RAW264.7 cells were fixed with 4% paraformaldehyde for 20 min at room temperature. The coverslips were washed with PBS with 0.2% tween 20 and blocked with 5% goat serum. Primary antibodies were applied to coverslips overnight at 4°C, followed by secondary antibodies incubation for 1 h at room temperature. After three times wash, coverslips were mounted with Fluoroshield™ with DAPI (Solarbio, China) and images were acquired by confocal microscopy (ZEISS, Germany). Primary antibody: rabbit anti-mouse IRF5 (1:800, Abcam, China); rabbit anti-mouse p65 (1:1,000, Abcam, China). Secondary antibody: Alexa eFluor®488 conjugated goat anti-rabbit IgG (1:2000, Thermo Fisher Scientific, Carlsbad, United States).

Assay [6] has as its system TLR7 (R837) / TLR3 (poly:IC) induced cytokine production in BMDMs. In words: ELISA of IL-1β and IL-6 in supernatant of R837 and/or poly:IC stimulated BMDMs. In kind it is cell-based, C57BL/6 mice. As for the experimental part:
as §3, §5, §4

Assay [7] has as its system TNF-α, IL-4, IL-17A, IL-1β and IL-6 in serum. Nature of the assay: Cytokines in sera of STA mice (CBA Multiplex kit, ELISA). The settings on record: STA mice; DEX 30 mg/kg gavage. In kind it is in vivo, C57BL/6 mice. As for the experimental part:
(§6) K/BxN serum was collected from K/BxN mice at 8 weeks of age, pooled, aliquoted and stored at -20 °C. K/BxN serum-transfer arthritis (STA) model was induced by intraperitoneal (i.p.) application of 150 μL of serum at day 0. Clinical score for arthritis severity was assessed using a 0–4 point scale for each paw at various time points (0–16 total score) as described previously ([Luo et al., 2011]). 8-week old male C57BL/6 mice were purchased from Dashuo Animal Center (China, Chengdu), maintained at 25°C, and exposed to 12-h light and dark cycles. Mice were fed with standard laboratory chow and water with 1 week of acclimatization. Naive mice were used as the control group. Except the control mice, all mice were i. p. injected with 150 μL of serum, then randomly divided into the following groups and treated with different compounds daily for the consecutive 8 days: 1) STA group; 2) Solvent control group, mice were gavaged with the solvent; 3) Dexamethasone (DEX) group, mice were gavaged with 30 mg/kg DEX; 4) EFL2 group 1, mice were gavaged with 40 mg/kg EFL2; 5) EFL2 group 2, mice were intraperitoneally injected with 15 mg/kg EFL2; 6) EFL2 group 3, […] were intraperitoneally injected with 40 mg/kg EFL2. […] All animal experiments were conducted in accordance with ethical regulation for animal care and use in China.
as §4

Assay [8] relates to synovial hyperplasia and articular inflammatory cells infiltration in knee joints. Nature of the assay: Histological assessment (H&E) of knee joints of STA mice. In kind it is in vivo, C57BL/6 mice. The settings on record: DEX 30 mg/kg gavage. The method, then:
as §6
The left knee joints were removed on day 13 post STA and fixed in 4% formaldehyde overnight at 4°C. The tissues were decalcified in EDTA and sectioned after embedding in paraffin. 5 μm sections were deparaffinized with xylene, re-hydrated with 100, 95 and 80% ethanol and then stained with hematoxylin and eosin (H&E). Histopathological changes in the knee joints were measured using a semiquantitative scoring system (0–4 scale) to assess synovial hyperplasia and articular inflammatory cells infiltration as previously described ([Yamanishi et al., 2002]).

Assay [9] relates to K/BxN serum-transfer arthritis (STA) model. Nature of the assay: K/BxN serum-transfer arthritis (STA) model, arthritic index / clinical score. The settings on record: STA mice; DEX 30 mg/kg gavage daily. In kind it is in vivo, C57BL/6 mice. The method, then: as §6
Where [10] appears, read: RAW 264.7 cells, JSH-23 10 μM, 24 h.

Results on four compounds are retold here after paper PMC8691750, “Euphorbia Factor L2 ameliorates the Progression of K/BxN Serum-Induced Arthritis by Blocking TLR7 Mediated IRAK4/IKKβ/IRF5 and NF-kB Signaling Pathways” (Frontiers in Pharmacology, 2021).

In the case of `CC(C)Cn1cnc2c(N)nc3ccccc3c21` [R837, imiquimod, reference compound], in assay [1], the “phosphorylation of IKKα/β and IκB-α” value is reported as “rapidly occurs”. Besides, the “IL-1β and IL-6 release in the supernatant” value in assay [2] is listed as “robustly induced”; in [3] (RAW264.7 cells, R837 alone (20 μg/ml)), “robustly induced”; in assay [6] (BMDMs, R837 alone (20 μg/ml)), “robustly induced”. In addition, the “phosphorylation of IRAK4 and IKKβ” value in [4] was “rapidly triggered”. In addition, the “IRF5 translocation from cytoplasm to nucleus” value in [5] is listed as “dramatically induced”.
Regarding `C[C@@H]1C[C@H]2[C@@H]3CCC4=CC(=O)C=C[C@]4(C)[C@@]3(F)[C@@H](O)C[C@]2(C)[C@@]1(O)C(=O)CO` [DEX, Dexamethasone, reference compound], in assay [7], the “IL-1β level in sera” value is reported as “significantly reduced” and the “IL-6 level in sera” value was “significantly reduced”. The “inflammatory status and inflamed synovium in joints” value in [8] is “significantly inhibited”. The arthritis clinical scores result in assay [9] is “significantly lowered”.
Regarding `Cc1ccc(NCCCc2ccccc2)c(N)c1` [JSH-23], in assay [3] (setting [10]), the “R837-induced IL-1β production” value was “to a large extent, blocked” and the “R837-induced IL-6 secretion” value is reported as “only partially reduced”.
With poly (I:C) [reference compound], the “IL-1β and IL-6 production” value is “did enhance” in assay [3] (R837-stimulated RAW264.7 cells, addition of poly (I:C)); “did not affect” in assay [6] (BMDMs, poly (I:C) alone (1 μg/ml)); “did enhance” in [6] (R837-stimulated BMDMs, addition of poly (I:C)). Besides, the “IL-1β and IL-6 secretion” value in [3] (RAW264.7 cells, poly (I:C) alone (1 μg/ml)) is on record as “significantly increased”.
